Experimental data taken from patent publication US20220105058A1, “USE OF 3-O-SULFAMATE-16,16-DIMETHYL-D-HOMOEQUILENIN TO TREAT ONCOLOGICAL DISEASES” (priority 2018, published 2022).
“Also recorded” adds a separate entry of the source. Like-named read-outs stand apart in the source and are kept apart here. Marks after values point to notes of the source that are not given here.

Columns and labels:
[1] = test system: uterine body without horns; experiment: uterine body weight (hormonal effect) on Day 28; assay type: in vivo, FVB mice transgenic for HER-2/neu; details: for Uterine body weight: Day 28; for uterotropic activity / hormonal effect: mouse, in vivo
Method: To estimate the hormonal effect of the medicament, the weight of uterine body without horns was measured on Day 28 of the observation period (Table 9).

[2] = test system: MCF-7 human cells culture (breast adenocarcinoma); experiment: proliferation of passaged MCF-7 cell culture; assay type: cell-based
Method: The study analysis was carried out on an passaged MCF-7 human cells culture culture (breast adenocarcinoma). Normal human dermal fibroblasts (HDF) of early passages were used as a negative control. The cells were cultivated in Carrel vials in DMEM/F12 medium (Biolot) with 1.0% of antibiotic-free fetal bovine embryonic serum (Biolot) added in the 5% CO2 atmosphere, at 37° C.
The cells were seeded on Carrel vials at 50×10^4 cells per flask. To study the proliferative activity of the cells under conditions of sulfatase inhibition, 24 hours after seeding the culture medium […], and then these tumor cell lines were incubated for various periods of time (24 to 72 hrs). The inhibitor was dissolved in DMSO. […] To exclude the cytotoxic effect of DMSO, a control sample comprising DMSO without sulfatase inhibitor was prepared. To exclude nonspecific detrimental effects of the compounds, normal human skin fibroblasts were used. Then the cells were detached with the versene-trypsin solution (Biolot), plated onto Carrel vials containing a fresh complete culture medium. The cells were counted when untreated control cells reached the maximum cell density per unit of surface area of a culture flask (monolayer), and their number was set as 100%. The proliferative activity of all of the studied cell cultures exposed to sulfatase inhibitors was determined in triplicate.

[3] = body weight and tolerability during the antitumor study; details: for average body weight of mice (M): Tamoxifen 4.0 mg/kg i.g. daily; for Body weight: Tamoxifen 4 mg/kg
Method: The study medicament was administered i.g. using a metal atraumatic gavage (with the procedure corresponds to the oral route of administration in clinical settings). The medicament was administered in a single daily dose (20 mg/kg of body weight) and 5-fold daily dose of 100 mg/kg of body weight. Ex tempore solutions of the medicament for administration were prepared in olive oil (refined olive oil supplemented with unrefined extra virgin olive oil available under Global Village “Clasico” trademark, lot L:183351116, expiry date 26 Apr. 2020, BAIEO, Spain). The administered volume was 0.1 ml per 10 g of a mouse body weight (0.2 ml of a ready-to-use formulation for a mouse of 20 g). The medicament administration was started 24 hours after the randomization. The duration of the administration course was 27-28 days.
This dose corresponds to a human daily dose of 20 mg/kg.
The evaluation criteria included the clinical observation data, animals body weights, time of death (if applicable), tumor growth over time, pathomorphological examination data (verification of a neoplasm during autopsy, assessment of toxic effects by macroscopic presentation of changes in the internal organs).
The animals body weights were recorded before the first administration of the medicaments and then twice per week using a verified high-speed electronic laboratory balance Ohaus Scout Pro (USA) with a maximum load of 2000 g and a measurement step of 0.1 g.

[4] = test system: Breast tumors (BT) in female FBV/N mice transgenic for HER-2/neu; experiment: antitumor activity in mice with HER-2/neu breast tumors; assay type: in vivo, FVB mice transgenic for HER-2/neu; details: for average total volume of tumors, % changes from baseline / average volume of tumors, % changes from baseline: 28 days; for Total number of new tumors: end of experiment; for frequency of tumor stabilizations: end of observation; for antitumor efficacy compared with Tamoxifen: mouse, in vivo
From the text: The age of animals at the beginning of the study was 21-41 weeks and weight was 25-30 g.
The control groups were given the olive oil (placebo).
TGI=(Vctrl−Vexp)/Vctrl×100(%),

## CC/C(=C(\c1ccccc1)c1ccc(OCCN(C)C)cc1)c1ccccc1 [Tamoxifen]
[1]; Tamoxifen 4 mg/kg, All mice
  Uterine body weight: 28 ± 1 mg
[1]; Tamoxifen 4 mg/kg, estrus (E-9)
  Uterine body weight: 28 ± 1 mg
[2]
  proliferation of tumor MCF-7 cells: inhibited to the same extent
[3]; Day 0
  average body weight of mice (M): 31.0 g
[3]; Day 7
  average body weight of mice (M): 32.0 g
[3]; Day 14
  average body weight of mice (M): 32.9 g
[3]; Day 21
  average body weight of mice (M): 32.8 g
[3]; Day 28
  average body weight of mice (M): 34.2 g
[3]; Day 28, All mice
  Body weight: 34.2 ± 1.4 g
[3]; Day 28, estrus (E-9)
  Body weight: 34.2 ± 1.4 g
[4]; Tamoxifen 4 mg/kg
  Average volume of new tumors at the end of observation period (M): 0.20 cm^3
  average total volume of tumors, % changes from baseline: 338%
  average volume of tumors, % changes from baseline: 338%
  Total number of new tumors: 32
  frequency of tumor stabilizations: 3%
[4]; Tamoxifen 4 mg/kg, Day 0
  TGI (average total tumor volume): 44%
  TGI (average tumor volume): 24%
  average total volume of tumors in mice (M): 1.26 cm^3
  average volume of tumors (M): 0.29 cm^3
[4]; Tamoxifen 4 mg/kg, Day 7
  TGI (average total tumor volume): 33%
  TGI (average tumor volume): 8%
  average total volume of tumors in mice (M): 2.01 cm^3
  average volume of tumors (M): 0.46 cm^3
[4]; Tamoxifen 4 mg/kg, Day 14
  TGI (average total tumor volume): 32%
  TGI (average tumor volume): 7%
  average total volume of tumors in mice (M): 2.84 cm^3
  average volume of tumors (M): 0.65 cm^3
[4]; Tamoxifen 4 mg/kg, Day 21
  TGI (average total tumor volume): 36%
  TGI (average tumor volume): 12%
  average total volume of tumors in mice (M): 3.23 cm^3
  average volume of tumors (M): 0.75 cm^3
[4]; Tamoxifen 4 mg/kg, Day 28
  TGI (average total tumor volume): 5%
  TGI (average tumor volume): −31%
  average total volume of tumors in mice (M): 5.52 cm^3
  average volume of tumors (M): 1.27* cm^3

## CC1(C)CC(=O)[C@@]2(C)CCc3c(ccc4cc(OS(N)(=O)=O)ccc34)[C@@H]2C1 [medicament, 3-O-sulfamate-16,16-dimethyl-D-homoequilenin]
[1]; medicament 20 mg/kg, All mice
  Uterine body weight: 27 ± 5 mg
[1]; medicament 20 mg/kg, diestrus (D-7)
  Uterine body weight: 19 ± 3 mg
[1]; medicament 20 mg/kg, estrus (E-3)
  Uterine body weight: 45 ± 7 mg
[1]; medicament 100 mg/kg, All mice
  Uterine body weight: 26 ± 6 mg
[1]; medicament 100 mg/kg, diestrus (D-8)
  Uterine body weight: 19 ± 4 mg
[1]; medicament 100 mg/kg, estrus (E-2)
  Uterine body weight: 50 ± 10 mg
[1]
  uterotropic activity / hormonal effect: No significant differences; also recorded: no uterotropic activity
[1]; listed as compound
  uterotropic activity / hormonal effect: absence of uterotropic activity
[2]
  proliferation of tumor MCF-7 cells: completely inhibits proliferation
[2]; concentration of 20 μg/ml
  proliferation of tumor MCF-7 cells: completely blocks the proliferation
[3]; end of the experiment
  signs of toxic damage to internal organs at autopsy: No specific signs of toxic damage to internal organs were found
[3]; mouse, in vivo
  clinical signs of toxicity: no clinical signs of toxicity being observed
[4]; medicament 20 mg/kg
  Average volume of new tumors at the end of observation period (M): 0.15 cm^3
  average total volume of tumors, % changes from baseline: 106%
  average volume of tumors, % changes from baseline: 103%
  Total number of new tumors: 23
  frequency of tumor stabilizations: 22%
[4]; medicament 20 mg/kg, Day 0
  TGI (average total tumor volume): 25%
  TGI (average tumor volume): 8%
  average total volume of tumors in mice (M): 1.69 cm^3
  average volume of tumors (M): 0.35 cm^3
  relative change of the average total volume to that of Day − 1 (M): 0%
[4]; medicament 20 mg/kg, Day 7
  TGI (average total tumor volume): 36%
  TGI (average tumor volume): 22%
  average total volume of tumors in mice (M): 1.93 cm^3
  average volume of tumors (M): 0.39 cm^3
  relative change of the average total volume to that of Day − 1 (M): 19%
[4]; medicament 20 mg/kg, Day 14
  TGI (average total tumor volume): 36%
  TGI (average tumor volume): 21%
  average total volume of tumors in mice (M): 2.67* cm^3
  average volume of tumors (M): 0.55 cm^3
  relative change of the average total volume to that of Day − 1 (M): 64^a %
[4]; medicament 20 mg/kg, Day 21
  TGI (average total tumor volume): 38%
  TGI (average tumor volume): 25%
  average total volume of tumors in mice (M): 3.15** cm^3
  average volume of tumors (M): 0.64 cm^3
  relative change of the average total volume to that of Day − 1 (M): 91^aa %
[4]; medicament 20 mg/kg, Day 28
  TGI (average total tumor volume): 40%
  TGI (average tumor volume): 27%
  average total volume of tumors in mice (M): 3.48**^a cm^3
  average volume of tumors (M): 0.71* cm^3
  relative change of the average total volume to that of Day − 1 (M): 107*^aa %
[4]; medicament 100 mg/kg
  Average volume of new tumors at the end of observation period (M): 0.12* cm^3
  average total volume of tumors, % changes from baseline: 59%
  average volume of tumors, % changes from baseline: 60%
  Total number of new tumors: 15
  frequency of tumor stabilizations: 27%
[4]; medicament 100 mg/kg, Day 0
  TGI (average total tumor volume): 25%
  TGI (average tumor volume): 8%
  average total volume of tumors in mice (M): 1.70 cm^3
  average volume of tumors (M): 0.35 cm^3
  relative change of the average total volume to that of Day − 1 (M): 0%
[4]; medicament 100 mg/kg, Day 7
  TGI (average total tumor volume): 41%
  TGI (average tumor volume): 26%
  average total volume of tumors in mice (M): 1.79 cm^3
  average volume of tumors (M): 0.37 cm^3
  relative change of the average total volume to that of Day − 1 (M): 1^a %
[4]; medicament 100 mg/kg, Day 14
  TGI (average total tumor volume): 45%
  TGI (average tumor volume): 31%
  average total volume of tumors in mice (M): 2.30* cm^3
  average volume of tumors (M): 0.48 cm^3
  relative change of the average total volume to that of Day − 1 (M): 38^a %
[4]; medicament 100 mg/kg, Day 21
  TGI (average total tumor volume): 46%
  TGI (average tumor volume): 33%
  average total volume of tumors in mice (M): 2.75** cm^3
  average volume of tumors (M): 0.57* cm^3
  relative change of the average total volume to that of Day − 1 (M): 75^aa %
[4]; medicament 100 mg/kg, Day 28
  TGI (average total tumor volume): 53%
  TGI (average tumor volume): 42%
  average total volume of tumors in mice (M): 2.71**^a cm^3
  average volume of tumors (M): 0.56**^a cm^3
  relative change of the average total volume to that of Day − 1 (M): 69**^aa %
[4]; medicament 100 mg/kg, listed as compound
  frequency of tumor stabilizations: 27%
[4]
  antitumor efficacy compared with Tamoxifen: statistically significantly more effective
[4]; listed as agent
  antitumor efficacy compared with Tamoxifen: inhibits the proliferation of tumours more effectively
